{
  "source": "paper PMC9720979",
  "about": "“Activation of Piezo1 downregulates renin in juxtaglomerular cells and contributes to blood pressure homeostasis” (Cell & Bioscience, 2022)",
  "biological_target": "T1, Piezo1 (Mus musculus, UniProt E2JF22)",
  "T1 construct": "endogenous full-length channel in mouse juxtaglomerular cell line As4.1 (ATCC CRL2193); homotrimer",
  "T1 sequence (E2JF22 whole entry)": "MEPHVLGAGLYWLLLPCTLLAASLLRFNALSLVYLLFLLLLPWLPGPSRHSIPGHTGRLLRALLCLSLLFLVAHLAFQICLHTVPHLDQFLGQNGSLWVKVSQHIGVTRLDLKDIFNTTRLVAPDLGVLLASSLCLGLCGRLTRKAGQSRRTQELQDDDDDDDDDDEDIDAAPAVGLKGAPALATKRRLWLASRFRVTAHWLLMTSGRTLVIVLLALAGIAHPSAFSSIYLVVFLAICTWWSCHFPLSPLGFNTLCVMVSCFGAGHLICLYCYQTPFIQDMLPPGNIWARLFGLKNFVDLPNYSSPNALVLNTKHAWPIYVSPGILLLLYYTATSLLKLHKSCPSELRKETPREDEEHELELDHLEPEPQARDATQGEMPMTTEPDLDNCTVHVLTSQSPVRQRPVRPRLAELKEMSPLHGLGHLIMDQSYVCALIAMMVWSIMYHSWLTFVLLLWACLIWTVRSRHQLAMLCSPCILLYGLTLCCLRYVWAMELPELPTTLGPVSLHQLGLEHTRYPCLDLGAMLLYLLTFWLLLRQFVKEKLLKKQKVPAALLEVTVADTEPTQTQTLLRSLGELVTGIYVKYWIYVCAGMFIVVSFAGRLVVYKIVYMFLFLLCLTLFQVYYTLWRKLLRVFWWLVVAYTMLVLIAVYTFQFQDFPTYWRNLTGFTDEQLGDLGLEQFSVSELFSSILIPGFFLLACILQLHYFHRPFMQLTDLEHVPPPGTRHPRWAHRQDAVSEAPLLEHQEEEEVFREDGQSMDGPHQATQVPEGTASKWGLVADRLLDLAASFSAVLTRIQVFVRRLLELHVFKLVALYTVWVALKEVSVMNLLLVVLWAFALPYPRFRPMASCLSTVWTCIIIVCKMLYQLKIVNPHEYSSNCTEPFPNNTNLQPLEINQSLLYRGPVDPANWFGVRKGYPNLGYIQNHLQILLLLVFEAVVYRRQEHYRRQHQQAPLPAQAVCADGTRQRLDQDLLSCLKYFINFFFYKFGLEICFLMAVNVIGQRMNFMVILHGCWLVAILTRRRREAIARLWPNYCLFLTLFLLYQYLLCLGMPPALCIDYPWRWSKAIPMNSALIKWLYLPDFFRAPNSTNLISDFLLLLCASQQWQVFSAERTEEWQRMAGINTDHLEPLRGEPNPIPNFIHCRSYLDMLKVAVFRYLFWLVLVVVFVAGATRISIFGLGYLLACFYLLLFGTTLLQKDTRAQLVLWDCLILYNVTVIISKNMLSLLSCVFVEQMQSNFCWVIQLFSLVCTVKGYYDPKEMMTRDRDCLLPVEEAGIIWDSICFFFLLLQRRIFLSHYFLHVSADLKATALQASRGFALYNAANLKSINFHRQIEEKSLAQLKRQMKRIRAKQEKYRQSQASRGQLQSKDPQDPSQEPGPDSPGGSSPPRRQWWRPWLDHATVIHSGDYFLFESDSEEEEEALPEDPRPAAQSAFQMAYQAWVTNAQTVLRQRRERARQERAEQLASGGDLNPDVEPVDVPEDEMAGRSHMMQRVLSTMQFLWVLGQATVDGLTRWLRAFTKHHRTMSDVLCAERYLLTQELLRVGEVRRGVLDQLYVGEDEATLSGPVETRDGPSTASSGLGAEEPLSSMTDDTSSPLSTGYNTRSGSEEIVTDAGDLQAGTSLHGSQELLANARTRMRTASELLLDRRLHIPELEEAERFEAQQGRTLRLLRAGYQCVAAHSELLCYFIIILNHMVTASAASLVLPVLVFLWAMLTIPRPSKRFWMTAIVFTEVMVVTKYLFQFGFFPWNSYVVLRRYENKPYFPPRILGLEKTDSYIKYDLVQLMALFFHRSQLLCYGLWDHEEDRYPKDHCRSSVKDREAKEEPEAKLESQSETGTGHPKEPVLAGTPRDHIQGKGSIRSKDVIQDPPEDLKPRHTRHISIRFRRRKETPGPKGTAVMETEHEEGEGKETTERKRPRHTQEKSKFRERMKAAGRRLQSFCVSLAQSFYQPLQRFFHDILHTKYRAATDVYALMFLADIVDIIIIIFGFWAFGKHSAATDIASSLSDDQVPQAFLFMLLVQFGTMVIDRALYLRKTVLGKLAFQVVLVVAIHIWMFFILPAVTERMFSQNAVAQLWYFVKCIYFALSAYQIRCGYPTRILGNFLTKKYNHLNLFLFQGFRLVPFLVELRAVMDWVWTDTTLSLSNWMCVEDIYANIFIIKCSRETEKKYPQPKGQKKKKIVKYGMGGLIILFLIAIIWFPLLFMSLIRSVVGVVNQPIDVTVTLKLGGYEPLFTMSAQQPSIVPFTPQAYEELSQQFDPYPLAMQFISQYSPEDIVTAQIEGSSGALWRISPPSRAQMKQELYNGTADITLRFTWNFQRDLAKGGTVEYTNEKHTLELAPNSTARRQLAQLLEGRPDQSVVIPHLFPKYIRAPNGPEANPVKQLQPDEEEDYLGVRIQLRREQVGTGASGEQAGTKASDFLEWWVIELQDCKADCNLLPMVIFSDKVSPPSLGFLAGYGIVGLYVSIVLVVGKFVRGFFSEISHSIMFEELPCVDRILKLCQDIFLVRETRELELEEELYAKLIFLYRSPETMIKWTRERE",
  "assay": "Fluo-4 calcium imaging in As4.[…] cells, Hill fit",
  "format": "cell-based",
  "details": "agonist; native As4.1 cells, HBSS with extracellular Ca2+; no added modulator",
  "data": [
    {"smiles": "Clc1cccc(Cl)c1CSc1nnc(-c2cnccn2)s1", "note": "[Yoda1]", "values": [
      {"measurement": "EC50", "value": 7.68, "unit": "µM"}
    ]}
  ]
}
